For data set [1], the system named is lung cancer cell line HCC-827. The experiment in a line: Trans-well cancer cell migration inhibition, HCC-827. In kind it is cell-based. Conditions: Homo sapiens, HCC827; Lung cancer cell HCC-827; read-out: Concentration inhibiting migration of cancer cells by 50% (IC50 value). How it is done:
(§1) In order to analyze cancer cell migration inhibitory activity of CG-608, CG-609 or CG-618 prepared in Examples 1, 2, or 9, cell migration inhibitory activity was measured using a trans-well by targeting a colon cancer cell line DLD-1 (ATCC-CCL-221), pancreatic cancer cell lines AsPc-1 (ATCC-CCL-1682). CFPAC-1 (ATCC-CCL-1918). Panc-1 (ATCC-CCL-1469), and Miapaca-2 (ATCC-CCL-1420), a skin cancer cell line A375-P (ATCC-CCL-3224), lung cancer cell lines HCC-827 (ATCC-CCL-2868), A549 (ATCC-CCL-185), and NCI-H460 (ATCC-CCL-177), a prostate cancer cell line DU145 (ATCC-HTB-81), a stomach cancer cell line NuGC-3 (JCRB0822), and an ovarian cancer cell line SKOV-3 (ATCC-HTB-77).
(§2) First, the number of DLD-1 cells was measured using a hemocytometer in an RPMI medium without FBS. Thereafter, the trans-well was placed on a 24-well plate and 8×10^4 […] of cells were added. In an empty space with the trans-well on the well plate, […] of an RPM medium having 10% FBS containing CG-608, CG-609, or CG-618 was added and cultured in a CO2 incubator at 37° C. for 16 hours. After culture, […] of crystal violet (5 mg/mL of 20% […] was added to each well of the 24-well plate and the trans-well was dyed at room temperature for 30 minutes. The dyed trans-well was washed with PBS and non-migrated cells were wiped off with cotton swabs. The prepared sample was photographed with an inverted microscope mounted with a digital camera (TE 300, Nikon. Japan) and then the number of migrated cells was counted. The degree of inhibiting cell migration was calculated by Equation 1 for a group treated with the sample compared to a control group (DMSO).
(§3) In Equation 1, ‘the number of migrated cells treated with sample’ refers to the number of migrated cells measured by treating CG-608 or CG-618 of Example 1, and ‘the number of migrated cells of a control sample’ refers to the number of migrated cells measured by treating only 1% dimethyl sulfoxide (DMSO) instead of the compound.

For data set [2], the system named is pancreatic cancer cell line AsPc-1. The experiment in a line: Trans-well cancer cell migration inhibition, AsPc-1. Format: cell-based. The note with it: Homo sapiens, ASPC1; Pancreatic cancer cell line AsPc-1; read-out: Concentration inhibiting migration of cancer cells by 50% (IC50 value). How it is done: as §1, §2, §3
The test system of data set [3] is prostate cancer cell line DU145. Briefly: Trans-well cancer cell migration inhibition, DU145. In kind it is cell-based. Conditions: Homo sapiens, DU-145; Prostate cancer cell DU145; read-out: Concentration inhibiting migration of cancer cells by 50% (IC50 value). How it is done:
as §1, §2, §3

Data set [4] has as its system skin cancer cell line A375-P. Briefly: Trans-well cancer cell migration inhibition, A375-P. In kind it is cell-based. The note with it: Homo sapiens, A375P; Skin cancer cell A375-P; read-out: Concentration inhibiting migration of cancer cells by 50% (IC50 value). On the procedure:
as §1, §2, §3

The subject of data set [5] is stomach cancer cell line NuGC-3. The experiment in a line: Trans-well cancer cell migration inhibition, NuGC-3. In kind it is cell-based. Conditions: Homo sapiens; Gastric cancer cell NuGC-3; read-out: Concentration inhibiting migration of cancer cells by 50% (IC50 value). On the procedure: as §1, §2, §3
The test system of data set [6] is colon cancer cell line DLD-1. Briefly: Trans-well cancer cell migration inhibition, DLD-1. In kind it is cell-based, human. The note with it: Homo sapiens; Colon cancer cell DLD-1, trans-well, 16 hours; read-out: Concentration inhibiting migration of cancer cells by 50% (IC50 value). On the procedure:
as §1, §2, §3

The nature of data set [7]: Acute toxicity test for oral administration to rats. Conditions: rat, in vivo, 1000 mg/kg; SD rats, single oral dose; read-out: Minimum dose (LD50) of oral administration. How it is done:
Six-week-old specific pathogen free (SPF) SD-based rats were divided by two per group and then CG-608, CG-609, or CG-618 prepared in Example 1, 2, or 9 was dissolved in distilled water for injection and orally administered to rats once in a dose of 1000 mg/kg.

The test system of a further data set is colon cancer cells DLD-1. The experiment in a line: Cancer cell invasion inhibition (Matrigel trans-well), DLD-1. In kind it is cell-based. The note with it: Homo sapiens, DLD-1; 5 μM. How it is done: In order to analyze cancer cell invasion inhibitory activity of CG-609 or CG-618 prepared in Example 1 or 9, cell invasion inhibitory activity using a trans-well was measured by targeting colon cancer cell line DLD-1 cells or pancreatic cancer cell line AsPc-1 cells.
Matrigel was diluted by 1/5 using an RPMI medium without FBS and then […] was put into each trans-well. The cells were coated in a […] for 2 hours. The number of DLD-1 cells was measured using a hemocytometer in an RPMI medium without FBS. Thereafter, the coated trans-well was placed on a 24-well plate and 8×10^4 […] of cells were added. In an empty space of the trans-well on the well plate, […] of an RPMI medium having 10% FBS containing (S)-(−)-benproperine was added and cultured in a CO2 incubator at 37° C. for 16 hours. After culture, […] of crystal violet (5 mg/mL of 20% MeOH) was added to each well of the 24-well plate and the trans-well was dyed at room temperature for 30 minutes. The dyed trans-well was washed with PBS and non-migrated cells were wiped off with cotton swabs. The prepared sample was photographed with an inverted microscope mounted with a digital camera (TE 300, Nikon, Japan), and then the number of migrated cells was counted. The degree of inhibiting cell migration was calculated for a group treated with the sample compared to a control group (DMSO).

Usually inhibition stands for the drop in the measured response relative to a control, in per cent.

Take `CC1CCCCN1[C@@H](C)COc1ccccc1Cc1ccccc1` (stereo partly drawn) [CG-608, 1-((S)-1-(2-benzylphenoxy)propan-2-yl)-2-methylpiperidine]: the IC50 stood at 1.5 µM in data set [1]; 250 nM in data set [2]; 5 µM in data set [3]; 1.5 µM in data set [4]; 2000 nM in data set [5]; 200 nM in data set [6]. In data set [7], the LD50 was no less than 1000 mg/kg.
In the case of `CC(COc1ccccc1Cc1ccccc1)N1CCCCC1` (centres unmarked) [benproperine, reference compound], the IC50 in data set [1] was 20 µM; in data set [2], 3000 nM; in data set [3], 20 µM; in data set [4], 7 µM; in data set [5], less than 20000 nM; in data set [6] it was 2000 nM. Moreover, 5 µM produced 50% inhibition in the data set with colon cancer cells DLD-1.

These data come from patent US11945779B2, “Inhibitors of cancer metastasis through inhibiting migration and invasion of cancer cells” (VSpharmtech, priority 2018, dated 2024).
